Drawing on patent publication US20260176320A1, “MODULATORS OF G-PROTEIN COUPLED RECEPTORS” (priority 2018, published 2026), this text covers EC50 and Emax for five compounds.

Read-outs that look alike come from different tables or passages of the source. Numbered stars: 1 amine (or outer) side, 2 acyl side, 3 side chain; on linkers, the order of the positions; unused ones are H or OH. Square brackets hold non-standard residues; d marks the D form. Side chains are listed from the residue outwards. Peptide text beside a SMILES is read from it. * marks the point of attachment. X1 = O=C(CSCC(=O)*)NCCN1C(=O)c2ccccc2C1=O; γGlu = O=C(O)[C@H](CCC(=O)[*:2])N[*:1]; X2 = O=C(CSCC(=O)*)NCCN1C(=O)CSC1=O; Palmitoyl = CCCCCCCCCCCCCCCC(=O)*; Aib = CC(C)(N)C(=O)O

Holding throughout (assay type): cell-based
Assay [1] deals with T1, GLP-1R (Homo sapiens, UniProt P43220). Nature of the assay: HitHunter cAMP assay (GLP-1R). Conditions: cAMP; for Emax: read-out: (Emax) GLP-1R. A digest of the protocol: (§1)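 cAMP, luminescence read: agonist 22-pt 2× dilution in DMSO, duplicate, 30 min RT on 10,000 cells/well in 1×HBSS/10 mM HEPES/625 μM IBMX/0.2% BSA; anti-cAMP reagent 1 h RT dark, then O/N RT dark before read.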

The target in assay [2] is T2, GIP-R (Homo sapiens, UniProt P48546).
T2 sequence (P48546 22-466): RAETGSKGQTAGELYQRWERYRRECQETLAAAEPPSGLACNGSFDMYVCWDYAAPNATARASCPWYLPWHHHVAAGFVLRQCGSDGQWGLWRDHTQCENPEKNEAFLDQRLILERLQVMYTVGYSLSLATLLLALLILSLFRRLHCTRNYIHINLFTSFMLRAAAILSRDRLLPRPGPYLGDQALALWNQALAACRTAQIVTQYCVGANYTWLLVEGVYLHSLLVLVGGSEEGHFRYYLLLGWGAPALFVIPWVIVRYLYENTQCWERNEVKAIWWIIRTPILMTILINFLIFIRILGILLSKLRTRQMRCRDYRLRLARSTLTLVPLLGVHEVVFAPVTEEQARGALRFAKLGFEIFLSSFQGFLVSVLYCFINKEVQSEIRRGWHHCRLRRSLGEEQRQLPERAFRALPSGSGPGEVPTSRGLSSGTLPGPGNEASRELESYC
Nature of the assay: HitHunter cAMP assay (GIP-R). Conditions: cAMP; for Emax: read-out: (Emax) GIP-R. A digest of the protocol: as §1

The target of assay [3] is T1, GLP-1R. Nature of the assay: PathHunter β-arrestin assay. The essentials: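 Luminescence read-out of β-arrestin recruitment (enzyme-fragment complementation detection, 3 h at room temperature in the dark) after 90 min agonist stimulation at 37 °C. Agonists tested as 22-point 2× serial dilutions in duplicate, in medium containing 0.2% BSA.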
The mark [4] stands for this setting: Table 3A, read-out: EC50 GLP-1R/nM.
Where [5] appears, read: Table 3A, read-out: EC50 GIP-R/nM.
[6] abbreviates: PathHunter β-arrestin assay, read-out: β-arrestin activity EC50.

T1 sequence (P43220 24-463): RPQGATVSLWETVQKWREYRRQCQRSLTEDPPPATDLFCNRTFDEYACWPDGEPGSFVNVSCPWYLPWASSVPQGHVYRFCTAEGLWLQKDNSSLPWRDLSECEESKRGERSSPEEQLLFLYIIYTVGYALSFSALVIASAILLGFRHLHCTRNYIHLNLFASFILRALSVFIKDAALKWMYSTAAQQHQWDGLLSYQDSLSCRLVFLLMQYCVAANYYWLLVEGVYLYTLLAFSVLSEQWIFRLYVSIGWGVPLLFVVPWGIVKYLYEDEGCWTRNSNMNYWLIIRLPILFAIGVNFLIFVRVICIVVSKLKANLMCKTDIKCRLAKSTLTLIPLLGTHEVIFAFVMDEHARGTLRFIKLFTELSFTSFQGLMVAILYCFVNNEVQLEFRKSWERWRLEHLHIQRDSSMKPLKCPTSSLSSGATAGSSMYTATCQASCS

By Emax is commonly meant the greatest response seen or fitted, relative to the assay's reference. `CC[C@H](C)[C@H](NC(=O)[C@H](CO)NC(=O)[C@H](Cc1ccc(O)cc1)NC(=O)[C@H](CC(=O)O)NC(=O)[C@H](CO)NC(=O)[C@@H](NC(=O)[C@H](Cc1ccccc1)NC(=O)[C@@H](NC(=O)CNC(=O)[C@H](CCC(=O)O)NC(=O)CSCC(=O)NCCN1C(=O)c2ccccc2C1=O)[C@@H](C)O)[C@@H](C)O)C(=O)N[C@@H](Cc1ccc(O)cc1)C(=O)N[C@@H](CC(C)C)C(=O)N[C@@H](CC(=O)O)C(=O)N[C@@H](CCCCN)C(=O)N[C@@H](CCC(N)=O)C(=O)N[C@@H](C)C(=O)N[C@H](C(=O)NC(C)(C)C(=O)N[C@@H](CCC(=O)O)C(=O)N[C@@H](Cc1ccccc1)C(=O)N[C@H](C(=O)N[C@@H](CC(N)=O)C(=O)N[C@@H](Cc1c[nH]c2ccccc12)C(=O)N[C@@H](CC(C)C)C(=O)N[C@@H](CC(C)C)C(=O)N[C@@H](C)C(=O)NCC(=O)NCC(=O)N1CCC[C@H]1C(=O)N[C@@H](CO)C(=O)N[C@@H](CO)C(=O)NCC(=O)N[C@@H](C)C(=O)N1CCC[C@H]1C(=O)N1CCC[C@H]1C(=O)N1CCC[C@H]1C(=O)N[C@@H](CO)C(=O)N[C@@H](CCCCN)C(N)=O)[C@@H](C)CC)C(C)C` [Compound 133] (X1-EGTFTSDYSIYLDKQAV[Aib]EFINWLLAGGPSSGAPPPSK-NH2): the EC50 was 1 to 10 nM in assay [1] (EC50 GLP-1R/nM, Table 3); 1 to 10 nM in assay [1] (EC50 GLP-1R/nM, Table 3A); 0.1 to 1 nM in assay [2] (EC50 GIP-R/nM, Table 3); 0.1 to 1 nM in assay [2] (EC50 GIP-R/nM, Table 3A); over 1000 nM in assay [3]. Besides, the Emax in assay [1] (Table 3) is 98%; in assay [1] (Table 3A), 98%; in assay [2] (Table 3), 104%; in assay [2] (Table 3A), 104%.
In the case of `CCCCCCCCCCCCCCCC(=O)N[C@@H](CCC(=O)NCCCC[C@H](NC(=O)[C@H](CO)NC(=O)[C@@H]1CCCN1C(=O)[C@@H]1CCCN1C(=O)[C@@H]1CCCN1C(=O)[C@H](C)NC(=O)CNC(=O)[C@H](CO)NC(=O)[C@H](CO)NC(=O)[C@@H]1CCCN1C(=O)CNC(=O)CNC(=O)[C@H](C)NC(=O)[C@H](CC(C)C)NC(=O)[C@H](CC(C)C)NC(=O)[C@H](Cc1c[nH]c2ccccc12)NC(=O)[C@H](CC(N)=O)NC(=O)[C@@H](NC(=O)[C@H](Cc1ccccc1)NC(=O)[C@H](CCC(=O)O)NC(=O)C(C)(C)NC(=O)[C@H](C)NC(=O)[C@H](C)NC(=O)[C@H](CCC(N)=O)NC(=O)[C@H](CCCCN)NC(=O)[C@H](CC(=O)O)NC(=O)[C@H](CC(C)C)NC(=O)[C@](C)(Cc1ccc(O)cc1)NC(=O)[C@@H](NC(=O)[C@H](CO)NC(=O)[C@H](Cc1ccc(O)cc1)NC(=O)[C@H](CC(=O)O)NC(=O)[C@H](CO)NC(=O)[C@@H](NC(=O)[C@H](Cc1ccccc1)NC(=O)[C@@H](NC(=O)CNC(=O)[C@H](CCC(=O)O)NC(=O)CSCC(=O)NCCN1CCCCC1=O)[C@@H](C)O)[C@@H](C)O)[C@@H](C)CC)C(C)C)C(N)=O)C(=O)O` [Compound 225], the EC50 in assay [1] (setting [4]) was 0.1 to 1 nM; in assay [2] (setting [5]), 1 to 10 nM; in assay [3] (setting [6]), over 1000 nM. Also, in assay [2] (Table 3A), the Emax fell in the range of 70 to 80%.
With `CC[C@H](C)[C@H](NC(=O)[C@H](CO)NC(=O)[C@H](Cc1ccc(O)cc1)NC(=O)[C@H](CC(=O)O)NC(=O)[C@H](CO)NC(=O)[C@@H](NC(=O)[C@H](Cc1ccccc1)NC(=O)[C@@H](NC(=O)CNC(=O)[C@H](CCC(=O)O)NC(=O)CSCC(=O)NCCN1C(=O)c2ccc(C)cc2C1=O)[C@@H](C)O)[C@@H](C)O)C(=O)N[C@@H](Cc1ccc(O)cc1)C(=O)N[C@@H](CC(C)C)C(=O)N[C@@H](CC(=O)O)C(=O)N[C@@H](CCCCN)C(=O)N[C@@H](CCC(N)=O)C(=O)N[C@@H](C)C(=O)N[C@@H](C)C(=O)NC(C)(C)C(=O)N[C@@H](CCC(=O)O)C(=O)N[C@@H](Cc1ccccc1)C(=O)N[C@H](C(=O)N[C@@H](CC(N)=O)C(=O)N[C@@H](Cc1c[nH]c2ccccc12)C(=O)N[C@@H](CC(C)C)C(=O)N[C@@H](CC(C)C)C(=O)N[C@@H](C)C(=O)NCC(=O)NCC(=O)N1CCC[C@H]1C(=O)N[C@@H](CO)C(=O)N[C@@H](CO)C(=O)NCC(=O)N[C@@H](C)C(=O)N1CCC[C@H]1C(=O)N1CCC[C@H]1C(=O)N1CCC[C@H]1C(=O)N[C@@H](CO)C(=O)N[C@@H](CCCCN)C(N)=O)C(C)C` [Compound 156], the EC50 in assay [1] (EC50 GLP-1R/nM, Table 3) was 1 to 10 nM; in assay [1] (EC50 GLP-1R/nM, Table 3A), 1 to 10 nM; in assay [2] (EC50 GIP-R/nM, Table 3), under 0.1 nM; in assay [2] (EC50 GIP-R/nM, Table 3A), under 0.1 nM; in assay [3] it was over 1000 nM. Moreover, the Emax in assay [1] (Table 3) was 95 to 100%; in assay [1] (Table 3A), 95 to 100%; in assay [2] (Table 3) it was 116 to 118%; in assay [2] (Table 3A), 116 to 118%.
In the case of `CCCCCCCCCCCCCCCC(=O)N[C@@H](CCC(=O)NCCCC[C@H](NC(=O)[C@H](CO)NC(=O)[C@@H]1CCCN1C(=O)[C@@H]1CCCN1C(=O)[C@@H]1CCCN1C(=O)[C@H](C)NC(=O)CNC(=O)[C@H](CO)NC(=O)[C@H](CO)NC(=O)[C@@H]1CCCN1C(=O)CNC(=O)CNC(=O)[C@H](C)NC(=O)[C@H](CC(C)C)NC(=O)[C@H](CC(C)C)NC(=O)[C@H](Cc1c[nH]c2ccccc12)NC(=O)[C@H](CC(N)=O)NC(=O)[C@@H](NC(=O)[C@H](Cc1ccccc1)NC(=O)[C@H](CCC(=O)O)NC(=O)C(C)(C)NC(=O)[C@H](C)NC(=O)[C@H](C)NC(=O)[C@H](CCC(N)=O)NC(=O)[C@H](CCCCN)NC(=O)[C@H](CC(=O)O)NC(=O)[C@H](CC(C)C)NC(=O)[C@H](Cc1ccc(O)cc1)NC(=O)[C@@H](NC(=O)[C@H](CO)NC(=O)[C@H](Cc1ccc(O)cc1)NC(=O)[C@H](CC(=O)O)NC(=O)[C@H](CO)NC(=O)[C@@H](NC(=O)[C@H](Cc1ccccc1)NC(=O)[C@@H](NC(=O)CNC(=O)[C@H](CCC(=O)O)NC(=O)CSCC(=O)NCCN1C[C@H](OC)CC1=O)[C@@H](C)O)[C@@H](C)O)[C@@H](C)CC)C(C)C)C(N)=O)C(=O)O` [Compound 8], the EC50 is under 0.1 nM in assay [1] (EC50 GLP-1R/nM, Table 3); under 0.1 nM in assay [1] (EC50 GLP-1R/nM, Table 3A); 1 to 10 nM in assay [2] (EC50 GIP-R/nM, Table 3); 1 to 10 nM in assay [2] (EC50 GIP-R/nM, Table 3A); over 1000 nM in assay [3]. Also, the Emax in assay [1] (Table 3) came to 90%; in assay [1] (Table 3A), 90%; in assay [2] (Table 3), 57%; in assay [2] (Table 3A), 57%.
Turning to `CCCCCCCCCCCCCCCC(=O)N[C@@H](CCC(=O)NCCCC[C@H](NC(=O)[C@H](CO)NC(=O)[C@@H]1CCCN1C(=O)[C@@H]1CCCN1C(=O)[C@@H]1CCCN1C(=O)[C@H](C)NC(=O)CNC(=O)[C@H](CO)NC(=O)[C@H](CO)NC(=O)[C@@H]1CCCN1C(=O)CNC(=O)CNC(=O)[C@H](C)NC(=O)[C@H](CC(C)C)NC(=O)[C@H](CC(C)C)NC(=O)[C@H](Cc1c[nH]c2ccccc12)NC(=O)[C@H](CC(N)=O)NC(=O)[C@@H](NC(=O)[C@H](Cc1ccccc1)NC(=O)[C@H](CCC(=O)O)NC(=O)C(C)(C)NC(=O)[C@H](C)NC(=O)[C@H](C)NC(=O)[C@H](CCC(N)=O)NC(=O)[C@H](CCCCN)NC(=O)[C@H](CC(=O)O)NC(=O)[C@H](CCSC)NC(=O)[C@H](C)NC(=O)[C@@H](NC(=O)[C@H](CO)NC(=O)[C@H](Cc1ccc(O)cc1)NC(=O)[C@H](CC(=O)O)NC(=O)[C@H](CO)NC(=O)[C@@H](NC(=O)[C@H](Cc1ccccc1)NC(=O)[C@@H](NC(=O)CNC(=O)[C@H](CCC(=O)O)NC(=O)CSCC(=O)NCCN1C(=O)CSC1=O)[C@@H](C)O)[C@@H](C)O)[C@@H](C)CC)C(C)C)C(N)=O)C(=O)O` [Compound 71] (X2-EGTFTSDYSIAMDKQAA[Aib]EFVNWLLAGGPSSGAPPPSK([γGlu-Palmitoyl])-NH2), the Emax was 102% in assay [1] (Table 3), 102% in assay [1] (Table 3A), 77 to 87% in assay [2] (Table 3) and 77 to 87% in assay [2] (Table 3A). For the same compound, the EC50 in assay [1] (Table 3, read-out: EC50 GLP-1R/nM) is 0.1 to 10 nM; in assay [1] (setting [4]) it was 0.1 to 10 nM; in assay [2] (Table 3, read-out: EC50 GIP-R/nM), 1 to 10 nM; in assay [2] (setting [5]), 1 to 10 nM; in assay [3] (setting [6]), over 1000 nM.
